Laboratory results: US20230114728A1 (Venatorx Pharmaceuticals, Inc., priority 2019, published 2023)
Converted amounts (≈) assume the structure as drawn.

Key:
Type in all cases: cell-based
[1] = test system: N. gonorrhoeae WHO K; assay: Liquid broth MIC in Fastidious broth; settings: Neisseria gonorrhoeae, read-out: Minimum Inhibitory Concentration, N. gonorrhoeae WHO K
How it was run: (§1)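 Colonies were swabbed from chocolate agar after 24 h growth and standardised by optical density at 600 nm. Compounds were serially diluted twofold in Fastidious broth, and bacteria added to give 5×10^5 CFU/mL. After about 24 h at 36 °C in 5% CO2, the lowest concentration allowing under 10% growth was taken as MIC.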

[2] = test system: N. gonorrhoeae WHO L; assay: Liquid broth MIC in Fastidious broth; settings: Neisseria gonorrhoeae; N. gonorrhoeae strain WHO L; Fastidious broth; read-out: Minimum Inhibitory Concentration, N. gonorrhoeae WHO L
How it was run: as §1

[3] = test system: N. gonorrhoeae ATCC 49226; assay: Liquid broth MIC in Fastidious broth; settings: Neisseria gonorrhoeae, ATCC49226; N. gonorrhoeae strain ATCC 49226; Fastidious broth; read-out: Minimum Inhibitory Concentration, N. gonorrhoeae ATCC 49226
How it was run: as §1

[4] = test system: N. gonorrhoeae WHO G; assay: Liquid broth MIC in Fastidious broth; settings: Neisseria gonorrhoeae; N. gonorrhoeae strain WHO G; Fastidious broth; read-out: Minimum Inhibitory Concentration, N. gonorrhoeae WHO G
How it was run: as §1

[5] = test system: N. gonorrhoeae H041; assay: Liquid broth MIC in Fastidious broth; settings: Neisseria gonorrhoeae, H041, read-out: Minimum Inhibitory Concentration, N. gonorrhoeae H041
How it was run: as §1

[6] = test system: N. gonorrhoeae FA1090; assay: Liquid broth MIC in Fastidious broth; settings: Neisseria gonorrhoeae; N. gonorrhoeae strain FA1090; Fastidious broth; read-out: Minimum Inhibitory Concentration, N. gonorrhoeae FA1090
How it was run: as §1

[7] = test system: P. aeruginosa (ΔmexAB-oprM); assay: Broth microdilution MIC in CAMHB; settings: Pseudomonas aeruginosa, read-out: Minimum Inhibitory Concentration, P. aeruginosa ΔmexAB-OprM
How it was run: (§2)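 CLSI microdilution; CAMHB; inoculum 2-8×10^5 CFU/mL from 3-5 h 37° C culture; 2-fold compound series; 16-20 h, 37° C; MIC = lowest well without visible growth.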

[8] = test system: E. coli D22; assay: Broth microdilution MIC in CAMHB; settings: Escherichia coli; E. coli D22 (hyper-permeable); MHB; read-out: Minimum Inhibitory Concentration, E. coli D22
How it was run: as §2

[9] = test system: E. coli AG100A; assay: Broth microdilution MIC in CAMHB; settings: Escherichia coli, read-out: Minimum Inhibitory Concentration, E. coli AG100A
How it was run: as §2

[10] = test system: E. coli ATCC 25922; assay: Broth microdilution MIC in CAMHB; settings: Escherichia coli, ATCC25922; E. coli ATCC 25922; MHB; read-out: Minimum Inhibitory Concentration, E. coli 25922
How it was run: as §2

| SMILES | MIC [1] [µg/mL] | MIC [2] [µg/mL] | MIC [3] [µg/mL] | MIC [4] [µg/mL] | MIC [5] [µg/mL] | MIC [6] [µg/mL] | MIC [7] [µg/mL] | MIC [8] [µg/mL] | MIC [9] [µg/mL] | MIC [10] [µg/mL] |
| --- | --- | --- | --- | --- | --- | --- | --- | --- | --- | --- |
| NCCN1CCN(C(=O)N[C@@H](C(=O)N[C@H]2Cc3cccc(C(=O)O)c3OB2O)c2cc(Cl)c(O)cc2Cl)C(=O)C1=O [Example 90, (R)-3-((R)-2-(4-(2-aminoethyl)-2,3-dioxopiperazine-1-carboxamido)-2-(2,5-dichloro-4-hydroxyphenyl)acetamido)-2-hydroxy-3,4-dihydro-2H-benzo[e][1,2]oxaborinine-8-carboxylic acid] | > 64 | > 64 | > 64 | 16 to 32 (≈ 26.3 to 52.6 µM) | > 64 | 4 to 8 (≈ 6.58 to 13.2 µM) | > 128 | 8 to 16 (≈ 13.2 to 26.3 µM) | 32 to 64 (≈ 52.6 to 105 µM) | > 128 |
| CCN1CCN(C(=O)N[C@@H](C(=O)N[C@H]2Cc3cccc(C(=O)O)c3OB2O)c2cc(Cl)c(O)cc2Cl)C(=O)C1=O (single isomer, unassigned) [Example 91] | 16 to 32 (≈ 27 to 53.9 µM) | > 64 | 16 to 32 (≈ 27 to 53.9 µM) | 1 to 2 (≈ 1.69 to 3.37 µM) | 16 to 32 (≈ 27 to 53.9 µM) | 0.25 to 0.5 (≈ 0.421 to 0.843 µM) | 32 to 64 (≈ 53.9 to 108 µM) | 2 to 4 (≈ 3.37 to 6.74 µM) | 2 to 4 (≈ 3.37 to 6.74 µM) | 32 to 64 (≈ 53.9 to 108 µM) |
| CCN1CCN(C(=O)NC(C(=O)N[C@H]2Cc3ccc(F)c(C(=O)O)c3OB2O)c2ccc(C(=O)O)cc2)C(=O)C1=O (stereo partly drawn) [Example 15, (3R)-3-(2-(4-carboxyphenyl)-2-(4-ethyl-2,3-dioxopiperazine-1-carboxamido)acetamido)-7-fluoro-2-hydroxy-3,4-dihydro-2H-benzo[e][1,2]oxaborinine-8-carboxylic acid] | 4 to 8 (≈ 7.01 to 14 µM) | > 64 | 4 to 8 (≈ 7.01 to 14 µM) | 4 to 8 (≈ 7.01 to 14 µM) | 4 to 8 (≈ 7.01 to 14 µM) | 0.25 to 0.5 (≈ 0.438 to 0.877 µM) | 8 to 16 (≈ 14 to 28.1 µM) | 8 to 16 (≈ 14 to 28.1 µM) | 32 to 64 (≈ 56.1 to 112 µM) | > 128 |
| CCN1CCN(C(=O)NC(C(=O)N[C@H]2Cc3cccc(C(=O)O)c3OB2O)c2cc(O)cc(O)c2)C(=O)C1=O (mixture of isomers) [Example 79, (3R)-3-(2-(3,5-dihydroxyphenyl)-2-(4-ethyl-2,3-dioxopiperazine-1-carboxamido)acetamido)-2-hydroxy-3,4-dihydro-2H-benzo[e][1,2]oxaborinine-8-carboxylic acid] | 16 to 32 | 16 to 32 | 1 to 2 | 1 to 2 | 16 to 32 | < 0.125 | 2 to 4 | 2 to 4 | 2 to 4 | 8 to 16 |
| N=C(N)NCCN1CCN(C(=O)NC(C(=O)N[C@H]2Cc3ccc(F)c(C(=O)O)c3OB2O)c2ncc(O)cc2F)C(=O)C1=O (stereo partly drawn) [Example 51, (3R)-7-fluoro-3-(2-(3-fluoro-5-hydroxypyridin-2-yl)-2-(4-(2-guanidinoethyl)-2,3-dioxopiperazine-1-carboxamido)acetamido)-2-hydroxy-3,4-dihydro-2H-benzo[e][1,2]oxaborinine-8-carboxylic acid] | > 64 | > 64 | 4 to 8 (≈ 6.47 to 12.9 µM) | 4 to 8 (≈ 6.47 to 12.9 µM) | > 64 | 4 to 8 (≈ 6.47 to 12.9 µM) | 8 to 16 (≈ 12.9 to 25.9 µM) | 8 to 16 (≈ 12.9 to 25.9 µM) | 8 to 16 (≈ 12.9 to 25.9 µM) | 32 to 64 (≈ 51.8 to 104 µM) |
| CCN1CCN(C(=O)NC(C(=O)N[C@H]2Cc3cccc(C(=O)O)c3OB2O)c2ccc(O)c(NC(=O)c3ccc(O)c(O)c3Cl)c2)C(=O)C1=O (stereo partly drawn) [Example 74, (3R)-3-(2-(3-(2-chloro-3,4-dihydroxybenzamido)-4-hydroxyphenyl)-2-(4-ethyl-2,3-dioxopiperazine-1-carboxamido)acetamido)-2-hydroxy-3,4-dihydro-2H-benzo[e][1,2]oxaborinine-8-carboxylic acid] | > 64 | > 64 | > 64 | 16 to 32 (≈ 22.5 to 45.1 µM) | > 64 | 1 to 2 (≈ 1.41 to 2.82 µM) | 0.5 to 1 (≈ 0.704 to 1.41 µM) | 2 to 4 (≈ 2.82 to 5.63 µM) | 8 to 16 (≈ 11.3 to 22.5 µM) | > 128 |
| CCN1CCN(C(=O)NC(C(=O)N[C@H]2Cc3cccc(C(=O)O)c3OB2O)c2c(F)cc(O)cc2Cl)C(=O)C1=O (stereo partly drawn) [Example 95, (3R)-3-(2-(2-chloro-6-fluoro-4-hydroxyphenyl)-2-(4-ethyl-2,3-dioxopiperazine-1-carboxamido)acetamido)-2-hydroxy-3,4-dihydro-2H-benzo[e][1,2]oxaborinine-8-carboxylic acid] | 16 to 32 (≈ 27.7 to 55.5 µM) | 16 to 32 (≈ 27.7 to 55.5 µM) | 4 to 8 (≈ 6.94 to 13.9 µM) | 1 to 2 (≈ 1.73 to 3.47 µM) | 16 to 32 (≈ 27.7 to 55.5 µM) | < 0.125 | 32 to 64 (≈ 55.5 to 111 µM) | 0.5 to 1 (≈ 0.867 to 1.73 µM) | 0.5 to 1 (≈ 0.867 to 1.73 µM) | 8 to 16 (≈ 13.9 to 27.7 µM) |
| CCN1CCN(C(=O)NC(C(=O)N[C@H]2Cc3ccc(C=O)c(C(=O)O)c3OB2O)c2csc(N)n2)C(=O)C1=O (stereo partly drawn) [Example 57, (3R)-3-(2-(2-aminothiazol-4-yl)-2-(4-ethyl-2,3-dioxopiperazine-1-carboxamido)acetamido)-7-formyl-2-hydroxy-3,4-dihydro-2H-benzo[e][1,2]oxaborinine-8-carboxylic acid] | > 64 | > 64 | 16 to 32 (≈ 28.7 to 57.3 µM) | 16 to 32 (≈ 28.7 to 57.3 µM) | > 64 | 4 to 8 (≈ 7.16 to 14.3 µM) | 32 to 64 (≈ 57.3 to 115 µM) | 8 to 16 (≈ 14.3 to 28.7 µM) | 32 to 64 (≈ 57.3 to 115 µM) | 32 to 64 (≈ 57.3 to 115 µM) |
| CCN1CCN(C(=O)N[C@H](C(=O)N[C@H]2Cc3cccc(C(=O)O)c3OB2O)c2nc(Cl)c(C(=O)O)cc2F)C(=O)C1=O [Example 19, 6-((S)-2-(((R)-8-carboxy-2-hydroxy-3,4-dihydro-2H-benzo[e][1,2]oxaborinin-3-yl)amino)-1-(4-ethyl-2,3-dioxopiperazine-1-carboxamido)-2-oxoethyl)-2-chloro-5-fluoronicotinic acid] | > 64 | > 64 | 16 to 32 (≈ 26.4 to 52.8 µM) | 4 to 8 (≈ 6.6 to 13.2 µM) | > 64 | 1 to 2 (≈ 1.65 to 3.3 µM) | 32 to 64 (≈ 52.8 to 106 µM) | 2 to 4 (≈ 3.3 to 6.6 µM) | 32 to 64 (≈ 52.8 to 106 µM) | > 128 |
| NCCN1CCN(C(=O)N[C@@H](C(=O)N[C@H]2Cc3cccc(C(=O)O)c3OB2O)c2ccc(C(=O)O)cc2)C(=O)C1=O (single isomer, unassigned) [Example 84] | 16 to 32 (≈ 28.2 to 56.4 µM) | 16 to 32 (≈ 28.2 to 56.4 µM) | 4 to 8 (≈ 7.05 to 14.1 µM) | 1 to 2 (≈ 1.76 to 3.53 µM) | > 64 | 1 to 2 (≈ 1.76 to 3.53 µM) | 8 to 16 (≈ 14.1 to 28.2 µM) | 2 to 4 (≈ 3.53 to 7.05 µM) | 2 to 4 (≈ 3.53 to 7.05 µM) | 8 to 16 (≈ 14.1 to 28.2 µM) |
| NCCN1CCN(C(=O)NC(C(=O)N[C@H]2Cc3cccc(C(=O)O)c3OB2O)c2c(F)cc(O)cc2Cl)C(=O)C1=O (stereo partly drawn) [Example 94, (3R)-3-(2-(4-(2-aminoethyl)-2,3-dioxopiperazine-1-carboxamido)-2-(2-chloro-6-fluoro-4-hydroxyphenyl)acetamido)-2-hydroxy-3,4-dihydro-2H-benzo[e][1,2]oxaborinine-8-carboxylic acid] | > 64 | > 64 | > 64 | 16 to 32 (≈ 27 to 54.1 µM) | > 64 | 4 to 8 (≈ 6.76 to 13.5 µM) | 32 to 64 (≈ 54.1 to 108 µM) | 8 to 16 (≈ 13.5 to 27 µM) | 2 to 4 (≈ 3.38 to 6.76 µM) | 32 to 64 (≈ 54.1 to 108 µM) |
| N=C(N)NCCN1CCN(C(=O)NC(C(=O)N[C@H]2Cc3ccc(F)c(C(=O)O)c3OB2O)c2ccc(C(=O)O)c(F)c2)C(=O)C1=O (stereo partly drawn) [Example 78, (3R)-3-(2-(4-carboxy-3-fluorophenyl)-2-(4-(2-guanidinoethyl)-2,3-dioxopiperazine-1-carboxamido)acetamido)-7-fluoro-2-hydroxy-3,4-dihydro-2H-benzo[e][1,2]oxaborinine-8-carboxylic acid] | > 64 | > 64 | 16 to 32 (≈ 24.8 to 49.6 µM) | 4 to 8 (≈ 6.2 to 12.4 µM) | > 64 | 4 to 8 (≈ 6.2 to 12.4 µM) | 32 to 64 (≈ 49.6 to 99.2 µM) | 8 to 16 (≈ 12.4 to 24.8 µM) | > 128 | > 128 |
